Counter-ions that a name gives are not always drawn.
Test system: isolation induced aggressive behaviour (male NMRI mice)
Assay: Isolation induced aggressive behaviour test
Format: in vivo
Conditions: Mus musculus, sc, 0.5 hour after drug administration, read-out: ED50 (dose inhibiting aggressive behaviour among 50 percent of the pairs)
Excerpt: This type of aggression is interesting because it is known that this kind of emotional behaviour might be located in limbic structures in the brain (MacLean, P. D., Psychosom. Med. 11, 338 (1949)).
Every week male NMRI mice, weighing 20-22 g, were isolated in Makrolon cages for three weeks with diet and water ad libitum. A piece of cardboard was placed between the cages to prevent visual contact.
To test aggressiveness the mice were paired in a neutral area, a beaker (14 cm high and diameter 14 cm). A pair is considered aggressive if both the animals show clear signs of fighting within 5 minutes. This fighting is characterized by biting and vocalization. A soon as fighting is seen, the mice are separated and brought to their home cage (every second mouse is marked). […] Animals showing no aggression are discarded.
The test substance is administered s.c. (0.2-0.4 ml/20 g). The mice are paired 0.5 hour after the injection for trials of 5 minutes' duration.
The ED50 -value (mg/kg) reported is the dose inhibiting aggressive behaviour among 50 percent of the pairs 0.5 hour after drug administration.

Work on CCNC(=O)N1CCN(CCCOc2ccc(F)cc2)CC1 [1:3, 4-/3-(p-fluorophenoxy)proyl/-N-ethyl-1-piperazinecarboxamide hydrochloride] yielded an ED50 of 5 mg/kg.

CSc1ccc2c(c1)N(CCC1CCCCN1C)c1ccccc1S2 (centres unmarked) [Thioridazine] gave an ED50 of 5 mg/kg.

From patent publication US4778789A, “Piperazinecarboxamides having a phenoxyalkyl or thiophenoxyalkyl side chain” (priority 1985, dated 1988)
